Experimental data as given in US9255122B2, “Cholate and deoxycholate-based amphiphiles for membrane protein manipulation” (Wisconsin Alumni Research Foundation, priority 2013, dated 2016).

Legend:
[1] = Critical micelle concentration (CMC) estimated with hydrophobic fluorescent dye diphenylhexatriene (DPH); assay type: physicochemical
From the text: The “Critical Micelle Concentration” (CMC) refers to the concentration of a detergent (e.g., an amphiphile as described herein) in an aqueous solution at which the detergent molecules self-assemble into micelles. Below the CMC, detergents are mostly monomeric; above the CMC, micelle concentration increases linearly with detergent concentration. The CMC is dependent upon many factors and is detergent-specific. The CMC of a detergent can be determined experimentally by measuring the solubilization of a water-insoluble dye or fluorophore while varying the concentration of detergent. A CMC may also be determined by measuring the diminution of the surface tension of an aqueous solution as a function of detergent concentration (CMCs determined by either method correlate with each other). The CMC is determined by extrapolating the plot of solubilization vs. concentration (or surface tension vs. concentration) in the two linear regions above and below the CMC. Where the two lines intersect is the CMC.
The Critical Micelle Concentrations (CMCs) of compounds of the invention can be determined by standard techniques known to those of skill in the art. For example, CMCs of CAO and DCAO can be determined by monitoring uptake of a fluorescent dye (e.g., a dye such as 1,6-diphenylhexatriene) with increasing detergent concentration, monitored by fluorescence spectroscopy.

LHI-RC complex [2] = tested on: T1, LHI-RC complex; experiment: Solubilization of LHI-RC complex from R. capsulatus intracytoplasmic membranes (pellet/supernatant absorbance spectra); design: species or system Rhodobacter capsulatus; settings: for SY (%) Solubilization yield of LHI-RC complex from the membrane: 2×CMC for DPA-2, CAO, CAO-1, 10×CMC for other new agents, 50×CMC for DDM and LDAO, 32° C., 30 min
T1 construct: made in house; host or cells: Rhodobacter capsulatus U43[pUHTM86Bgl], intracytoplasmic membranes
Method: (§1) These two reagents were chosen as control agents for the assay. For the superassembly solubilization, the intracytoplasmic R. capsulatus membranes enriched in LHI-RC complex were treated with 10×CMC individual new agents except DPA-2; DPA-2 was tested at 2×CMC based on its high CMC value. On the other hand, conventional detergents (LDAO and DDM) were used at 50×CMC due to the small CMC value in terms of wt. %. The solubilized protein portion and insolubilized part containing cellular debris and insolubilized membranes were separated via ultracentrifugation and isolated as the supernatant and pellet, respectively. The absorption spectra of these two portions were taken to assess detergents efficacy on the protein solubilization and stabilization.
(§2) The solubilization and purification of the R. capsulatus superassembly were conducted according to the published protocol (Chae et al., ChemBioChem 2008, 9, 1706-1709). First, specialized photosynthetic membranes called intracytoplasmic membranes were obtained from an engineered strain of Rhodobacter (R.) capsulatus, U43[pUHTM86Bgl], lacking the light-harvesting complex II (LHII). The solubilization experiment began by thawing and homogenizing frozen aliquots of R. capsulatus membranes at room temperature. The solution was then incubated with mild agitation at 32° C. for 30 min. Subsequently, the solution was further incubated for 30 min after adding individual detergents (2×CMC for DPA-2, CAO and CAO-1, 10×CMC for DPA-1, […], DCAO and DCAO-2, 50×CMC for DDM and LDAO) into 1.0 mL solutions of R. capsulatus superassembly. The solution was then subjected to ultracentrifugation at 310,000 g at 4° C. for 30 min to remove membrane debris.
(§3) The spectra of solubilized supernatant and solubilized pellet were taken in a range from 650 nm to 950 nm after being homogenized. For the purification of the protein, detergent-solubilized samples were transferred into a new 1.7 mL microcentrifuge tube containing Ni-NTA resin (Qiagen, Inc.; Valencia, Calif.; pre-equilibriated and stored in an equal volume of buffer containing 10 mM Tris, pH 7.8, and 100 mM NaCl). Following one-hour incubation at 4° C. for protein binding, the resins were collected and washed twice with 0.5 mL of binding buffer (a pH 7.8 Tris solution containing DDM at 1×CMC). Purified protein solution were collected by eluting three times with 0.20 mL elution buffer solutions containing 1 M imidazole (otherwise, this buffer was identical to binding buffer; the pH of each solution was readjusted to pH=7.8) and diluted with 0.4 mL of the binding buffer to reach 1.0 mL solution. UV-Vis spectra of the superassembly purified in individual detergents were then taken to assess the stability of the protein.

LHI-RC complex [3] = tested on: T1, LHI-RC complex; experiment: Long-term stability of LHI-RC complexes, absorbance ratio A875/A680 over 20-day incubation at room temperature; design: species or system Rhodobacter capsulatus; settings: for long-term stability of superassembly (A875/A680), in words: room temperature; for native conformation retained by detergent-purified proteins: after 20 day-incubation at room temperature
Method: The favorable properties of CAO and DCAO in terms of membrane protein stabilization prompted further evaluation of these reagents' ability to stabilize protein superassemblies as a function of time. DDM-purified samples were diluted with solutions containing CAO or LDAO. […] Protein stability was monitored over time at room temperature by measuring absorbance ratios (A875/A680) (absorption at 680 nm arises from the oxidation of bacteriochlorophyll dissociated from LHI upon denaturation). […] Of note, DCAO was not evaluated in this long-term stability of the superassembly due to its high tendency to form a hydrogel at this high concentration.
R. capsulatus superassembly was purified in DDM according to the protocol described above. The DDM-purified sample was then diluted to the solutions containing individual detergents (CAO, CAO-1, DCAO, DCAO-2, DDM and LDAO). The dilution makes DDM concentration reached far below its CMC and the final individual detergent concentration at CMC+0.04 wt % or CMC+1.0 wt %. The spectra of individual detergents-solubilized LHI-RC complexes were taken in a range of 650 nm to 950 nm at regular intervals over 20 days during the incubation at room temperature. Protein integrity in each sample was assessed via changes in absorbance ratio (A875/A680) with time.
Similar criteria and protocols were used to judge the ability of amphiphiles to maintain solubilized and purified superassembly for extended periods. In this case, UV Vis-nearIR spectra were recorded at regular intervals. The degradation of the material could be monitored with the A875/A680 absorbance ratio, which decreased with time and sample integrity as the dominant 875 nm absorption of intact LHI disappeared and a 680 nm band appeared, indicating the presence of unbound, oxidized cofactors.

LHI-RC complex [4] = tested on: T1, LHI-RC complex; experiment: Integrity of detergent-solubilized and Ni-NTA-purified LHI-RC complexes by UV-Vis absorption spectra; design: species or system Rhodobacter capsulatus; settings: purified protein eluted at 1×CMC detergent
From the text: The presence of various types of cofactors such as bacteriochlorophyll and carotenoids embedded in the complexes, thereby providing a well-featured UV-Vis absorption spectrum, facilitates the assessment of the protein integrity for a set of detergents via optical spectrophotometry. The native conformation of the protein is represented by a very strong peak at 875 nm in its absorption spectrum, while the intact RC but denatured LHI, or denatured LHI and RC, produce rather intense peaks at ˜800 nm and ˜760 nm, respectively.
as §1
For the purification, the detergent-solubilized protein samples were subjected to a metal affinity column chromatography and eluted with the elution buffer containing 1M imidazole and 1×CMC individual detergents. The UV-Visible spectra of the resulting protein samples were taken to investigate the integrity of detergent-purified LHI-RC complexes.
as §2, §3

[5] = Water solubility and hydrogel formation of amphiphiles; assay type: physicochemical
Method: The amphiphiles prepared, except LDAO and DCAO, are water-soluble at up to 10 wt. %. […] DCAO was initially soluble, at approximately 1.0 wt. %, but tends to form a hydrogel over time at concentrations of greater than about 0.3 wt. %. Critical micelle concentration (CMC) values were estimated by using a hydrophobic fluorescent dye, diphenyhexatriene (DPH) (see Laible et al., Biochemistry 2003, 42, 1718-1730).
The CMC values were determined for CAO-1 (˜7.2 mM; ˜0.38 wt. %) and DCAO-2 (˜1.1 mM; ˜0.056 wt. %), which are similar to those of their parent compounds, CAO and DCAO, respectively (see Table 2.1 above). […] All of these cholate and deoxycholate-based agents preserved the native conformation of the superassembly during protein solubilization and purification processes.

[6] = estimated with DPH, Example 2, Table 2.1
[7] = at CMC+0.04 wt. % and CMC+1.0 wt. %, 20 days

T1 sequence (P11847 whole entry): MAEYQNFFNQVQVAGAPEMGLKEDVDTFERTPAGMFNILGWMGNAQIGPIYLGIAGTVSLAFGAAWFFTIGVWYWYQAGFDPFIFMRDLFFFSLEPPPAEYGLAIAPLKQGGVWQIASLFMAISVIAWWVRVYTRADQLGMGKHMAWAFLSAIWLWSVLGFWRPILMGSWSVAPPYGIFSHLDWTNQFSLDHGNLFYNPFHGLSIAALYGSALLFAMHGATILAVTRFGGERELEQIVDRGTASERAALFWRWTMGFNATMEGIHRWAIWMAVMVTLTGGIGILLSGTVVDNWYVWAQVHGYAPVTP
T1 sequence (P19057 whole entry, further chain): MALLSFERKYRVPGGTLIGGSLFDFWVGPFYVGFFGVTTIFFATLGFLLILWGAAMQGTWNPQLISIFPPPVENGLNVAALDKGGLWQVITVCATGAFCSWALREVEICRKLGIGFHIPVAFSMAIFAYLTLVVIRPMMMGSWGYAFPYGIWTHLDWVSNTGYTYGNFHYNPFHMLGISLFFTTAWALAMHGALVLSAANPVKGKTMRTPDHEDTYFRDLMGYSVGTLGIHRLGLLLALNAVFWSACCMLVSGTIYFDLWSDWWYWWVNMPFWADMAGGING
T1 sequence (P19056 whole entry, further chain): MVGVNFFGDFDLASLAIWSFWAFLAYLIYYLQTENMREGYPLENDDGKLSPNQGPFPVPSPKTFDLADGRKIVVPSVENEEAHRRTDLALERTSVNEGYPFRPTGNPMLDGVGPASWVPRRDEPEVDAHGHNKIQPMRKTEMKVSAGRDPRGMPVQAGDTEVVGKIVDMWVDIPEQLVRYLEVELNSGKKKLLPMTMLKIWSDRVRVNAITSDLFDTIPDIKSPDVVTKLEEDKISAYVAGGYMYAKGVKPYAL
T1 sequence (P02948 whole entry, further chain): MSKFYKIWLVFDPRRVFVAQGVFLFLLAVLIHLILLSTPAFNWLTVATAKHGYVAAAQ
T1 sequence (P02950 whole entry, further chain): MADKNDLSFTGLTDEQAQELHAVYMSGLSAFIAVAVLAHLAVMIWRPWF

Compound	CMC [1, 6] [mM]	CMC (wt. %) [1, 6] [wt. %]	SY (%) Solubilization yield of LHI-RC complex from the membrane (LHI-RC complex [2]) [%]	CMC ([1]; Example 3, Table 3-2) [mM]	CMC (%) ([1]; Example 3, Table 3-2)	native structure of LHI-RC complexes after solubilization and purification (in words) (LHI-RC complex [4])	further results
CC(CCC(=O)N(C)CCC[N+](C)(C)[O-])C1CCC2C3C(O)CC4CC(O)CCC4(C)C3CC(O)C12C (stereo not drawn) [CAO-1]	~7.2	~0.36	~20				long-term stability of superassembly (A875/A680), in words (LHI-RC complex [3]; [7]): clearly superior to DDM
CC(CCC(=O)NCCC[N+](C)(C)[O-])C1CCC2C3C(O)CC4CC(O)CCC4(C)C3CC(O)C12C (stereo not drawn) [CAO]	~8.3	~0.42	~30	7.1	0.36	fully retained as effectively as DDM	long-term stability of superassembly (A875/A680), in words (LHI-RC complex [3]; [7]): clearly superior to DDM; long-term stability of superassembly (A875/A680), in words (LHI-RC complex [3]; detergent at CMC+0.04 wt. %): more stable than DDM-solubilized protein; long-term stability of superassembly (A875/A680), in words (LHI-RC complex [3]; detergent at CMC+1.0 wt. %): efficacy difference between CAO and DDM was more prominent
C[C@H](CCC(=O)NCCC[N+](C)(C)CCCS(=O)(=O)[O-])[C@H]1CC[C@H]2[C@@H]3[C@H](O)C[C@@H]4C[C@H](O)CC[C@]4(C)[C@H]3C[C@H](O)[C@]12C [CHAPS, 3-[(3-cholamidopropyl)-dimethylammonio]-1-propanesulfonate, reference compound]	~8.0		~50	8	0.49	without structural degradation	native conformation retained by detergent-purified proteins (LHI-RC complex [3]): ~65%
C[C@H](CCC(=O)NCCC[N+](C)(C)CC(O)CS(=O)(=O)[O-])[C@H]1CC[C@H]2[C@@H]3[C@H](O)C[C@@H]4C[C@H](O)CC[C@]4(C)[C@H]3C[C@H](O)[C@]12C (stereo partly drawn) [CHAPSO, 3-[(3-cholamidopropyl)-dimethylammonio]-2-hydroxy-1-propanesulfonate, reference compound]			~50	8	0.5		native conformation retained by detergent-purified proteins (LHI-RC complex [3]): ~65%
CC(CCC(=O)NCCC[N+](C)(C)[O-])C1CCC2C3CCC4CC(O)CCC4(C)C3CC(O)C12C (stereo not drawn) [DCAO]	~1.3	~0.064	~70	1.0	0.049	fully retained as effectively as DDM	CMC fold lower than that of CHAPS or CHAPSO [1]: approximately 8 fold; hydrogel formation (in words) [5]: did not form a hydrogel; concentration at which a hydrogel tends to form over time ([5]; in water): greater than 0.3 wt. %; water solubility ([5]; water-soluble at up to the stated concentration): approximately 1.0 wt. %; long-term stability of superassembly (A875/A680), in words (LHI-RC complex [3]; detergent at CMC+0.04 wt. %): more stable than DDM-solubilized protein
CCCCCCCCCCCCO[C@@H]1O[C@H](CO)[C@@H](O[C@H]2O[C@H](CO)[C@@H](O)[C@H](O)[C@H]2O)[C@H](O)[C@H]1O [DDM, n-dodecyl-β-D-maltoside, reference compound]	~0.17	~0.0087	~70				
C[N+](C)([O-])CCCNC(=O)CC1(C2CCCC2)CCCCCC1 [DPA-1, 3-(2-(1-cyclopentylcycloheptyl)acetamido)-N,N-dimethylpropan-1-amine oxide]	~13	~0.24	~100			A similar trend was observed	
C[N+](C)([O-])CCCNC(=O)CC(c1ccccc1)c1ccccc1 [DPA-2, reference compound]	~78	~2.5	~15				
C[N+](C)([O-])CCCNC(=O)CC(C1CCCCC1)C1CCCCC1 [DPA-3, reference compound]	~4.9	~0.17	~95			protein degradation observed for DPA-3 was much less than that observed for DPA-1	
CCCCCCCCCCCC[N+](C)(C)[O-] [LDAO, lauryldimethylamine oxide, reference compound]	~1.0	~0.023	~100			native protein conformation mostly destroyed	extraction/solubilization of LHI-RC complexes (in words) (LHI-RC complex [2]): extracted the complexes almost quantitatively; water solubility (in words) [5]: insoluble in water
